Data on 17 molecules can be found in US20260200920A1, “SUBSTITUTED AMINOPYRIDINE COMPOUNDS FOR USE AS AKT1 INHIBITORS” (Atavistik Bio, Inc., priority 2023, published 2026).

In test [1] the target is T1, human recombinant kinase full-length wildtype AKT1 (Homo sapiens, UniProt P31749).
T1 construct: Purified human recombinant kinase full-length wildtype AKT1 was expressed in insect cells; made in house; host or cells: insect cells
Briefly: AKT1 kinase assay (wildtype, TR-FRET, Lance). It is filed as biochemical. As to conditions: 0.6 nM wildtype AKT1, 50 nM Ulight-CREBtide, either 50 μM ATP or 2 mM ATP, 60 min at RT. The protocol: AKT1 kinase assay: Inhibitory effects of compounds on wildtype AKT1 were undertaken in a 10-pt dose response kinase activity assay measuring phospho-peptide product formation based on TR-FRET signal as described in the following paragraph.
(§1) Purified human recombinant kinase full-length wildtype AKT1 was expressed in insect cells and activated in vitro by PDPK1. Ulight™-CREBtide (PerkinElmer, catalog number TRF0107) was used as the peptide substrate. The reaction buffer consisted of 50 mM HEPES pH 7.5, 10 mM MgCl2, 0.01% Triton X-100, 0.01% BSA, 2 mM DTT, 0.6 nM AKT1,50 nM Ulight™-CREBtide and either 50 μM ATP or 2 mM ATP. The compound solution was prepared as 10 mM DMSO stock. For the assay, a 1:3 serial dilution 10-pt dose response of test compounds, in duplicate, for each concentration were dispensed into a 384-well plate (Corning, catalog number 4513). Final DMSO concentration in the assay was 1%. The enzyme mixture (5 μL, 1.2 nM) were added and the mixture was incubated for 15 min at RT prior to the start of the kinase reaction by the addition of 5 μL substrate mixture (100 nM Ulight™-CREBtide). The reaction was stopped after 60 min of incubation at RT by the addition of 10 μL of Detection Mix (PerkinElmer, #CR97-100) consisting of Europium-anti-phospho-CREB (Ser133) (Perkin Elmer, catalog number TRF0200). Incubation with the detection mix for a further 60 min allowed binding of antibody to the phospho-Ulight™ CREBtide. The fluorescence emissions at 620 nm and 665 nm after excitation at 350 nm was measured using Envision reader. The ratio of the emissions at 665 nm and at 620 nm provided the measure for the amount of phosphorylated CREBtide product of AKT1 kinase activity. To determine the IC50 values, the data was normalized (enzyme reaction without inhibitor=0% inhibition, all other assay components but no enzyme=100% inhibition) and IC50 values were calculated by a 4-parameter fit using an in-house developed protocol.
The symbol +++ represents an IC50 value <20 μM; the symbol ++ represents an IC50 value from ≥20 μM to 80 μM.

Test [2] has as its target T2, human recombinant kinase full-length AKT1 E17K (Homo sapiens, UniProt P31749, E17K).
T2 construct: Purified human recombinant kinase full-length AKT1 E17K was expressed in insect cells; made in house; host or cells: insect cells
Briefly: AKT1 E17K kinase assay (TR-FRET, Lance). It is filed as biochemical. As to conditions: 0.6 nM AKT1 E17K, 50 nM Ulight-CREBtide, either 50 μM ATP or 2 mM ATP, 60 min at RT. The protocol:
AKT1 E17K kinase assay: Inhibitory effects of compounds on AKT1 E17K were undertaken in a 10-pt dose response kinase activity assay measuring phospho-peptide product formation based on TR-FRET signal as described in the following paragraph.
as §1, with “full-length” for “full-length wildtype”, “AKT1 E17K” for “AKT1”, “AKT1 E17K, 50” for “AKT1,50”, “1.3” for “1:3”
Table 9 assigns each compound a code for potency in the AKT1 E 17K kinase assay: A, B, or C. According to the code, A represents an IC50 value <500 nM; B represents an IC50 value from ≥500 nM to <2000 nM; and C represents an IC50 value ≥2000 nM.

T1 sequence (P31749 whole entry): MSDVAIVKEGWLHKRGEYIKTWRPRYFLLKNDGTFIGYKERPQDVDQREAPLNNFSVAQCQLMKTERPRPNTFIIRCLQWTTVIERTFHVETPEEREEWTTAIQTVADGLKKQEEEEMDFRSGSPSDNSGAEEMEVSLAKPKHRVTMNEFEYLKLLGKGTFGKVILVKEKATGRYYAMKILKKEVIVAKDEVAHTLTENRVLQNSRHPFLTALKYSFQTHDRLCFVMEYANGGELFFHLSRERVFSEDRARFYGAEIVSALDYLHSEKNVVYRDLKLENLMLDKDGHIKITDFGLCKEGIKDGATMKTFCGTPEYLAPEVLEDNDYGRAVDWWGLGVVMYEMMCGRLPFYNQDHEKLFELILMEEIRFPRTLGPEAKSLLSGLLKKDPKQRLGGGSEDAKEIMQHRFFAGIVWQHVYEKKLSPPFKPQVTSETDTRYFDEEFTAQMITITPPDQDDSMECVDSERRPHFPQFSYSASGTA
T2 sequence (P31749 whole entry E17K): as the sequence (P31749 whole entry) above, with E17K counted along it

On to `Nc1ncccc1-c1nc2ccc(-c3ccccc3)nc2n1-c1ccc(C(=O)N[C@H]2CC[C@@H](C(=O)O)CC2)cc1` [Compound I-17, (1s,4s)-4-(4-(2-(2-aminopyridin-3-yl)-5-phenyl-3H-imidazo[4,5-b]pyridin-3-yl)benzamido)cyclohexane-1-carboxylic acid], for which the values for the IC50 in test [1] and in test [2] were below 20000 nM and 500 to 2000 nM, respectively.
In the same order, the values of `Nc1ncccc1-c1nc2ccc(-c3ccccc3)nc2n1-c1ccc(C(=O)N[C@H]2CC[C@@H](C(=O)O)CC2)nc1` [Compound I-18, (1s,4s)-4-(5-(2-(2-aminopyridin-3-yl)-5-phenyl-3H-imidazo[4,5-b]pyridin-3-yl)picolinamido)cyclohexane-1-carboxylic acid] are below 20000 nM and at least 2000 nM.
The like results for `Nc1ncccc1-c1nc2ccc(-c3ccccc3)nc2n1-c1ccc(C(=O)N[C@H]2CC[C@H](C(=O)O)CC2)nc1` [Compound I-19, (1r,4r)-4-(5-(2-(2-aminopyridin-3-yl)-5-phenyl-3H-imidazo[4,5-b]pyridin-3-yl)picolinamido)cyclohexane-1-carboxylic acid] were, in that order, below 20000 nM and at least 2000 nM.
On to `Nc1ncccc1-c1nc2ccc(-c3ccccc3)nc2n1-c1ccc(C(=O)N2CCC(C(=O)O)CC2)cc1` [Compound I-20, 1-(4-(2-(2-aminopyridin-3-yl)-5-phenyl-3H-imidazo[4,5-b]pyridin-3-yl)benzoyl)piperidine-4-carboxylic acid], for which the results for the IC50 in test [1] and in test [2] were below 20000 nM and at least 2000 nM, respectively.
Consider `Nc1ncccc1-c1nc2ccc(-c3ccccc3)nc2n1-c1ccc(C(=O)N2CCCC(C(=O)O)C2)cc1` (stereo not shown) [Compound I-21, 1-(4-(2-(2-aminopyridin-3-yl)-5-phenyl-3H-imidazo[4,5-b]pyridin-3-yl)benzoyl)piperidine-3-carboxylic acid], for which the 50% inhibitory concentration (IC50) was below 20000 nM in test [1] and at least 2000 nM in test [2].
With `Nc1ncccc1-c1nc2ccc(-c3ccccc3)nc2n1-c1ccc(C(=O)N2CCC(C(=O)O)CC2)nc1` [Compound I-22, 1-(5-(2-(2-aminopyridin-3-yl)-5-phenyl-3H-imidazo[4,5-b]pyridin-3-yl)picolinoyl)piperidine-4-carboxylic acid], the IC50 was 20000 to 80000 nM in test [1] and at least 2000 nM in test [2].
The like results for `CC1(C(=O)O)CCN(C(=O)c2ccc(-n3c(-c4cccnc4N)nc4ccc(-c5ccccc5)nc43)cn2)CC1` [Compound I-23, 1-(5-(2-(2-aminopyridin-3-yl)-5-phenyl-3H-imidazo[4,5-b]pyridin-3-yl)picolinoyl)-4-methylpiperidine-4-carboxylic acid] were, in that order, 20000 to 80000 nM and at least 2000 nM.
As to `CC1(C)CN(C(=O)c2ccc(-n3c(-c4cccnc4N)nc4ccc(-c5ccccc5)nc43)cn2)CCC1C(=O)O` (stereo not shown) [Compound I-24, 1-(5-(2-(2-aminopyridin-3-yl)-5-phenyl-3H-imidazo[4,5-b]pyridin-3-yl)picolinoyl)-3,3-dimethylpiperidine-4-carboxylic acid], the IC50 in test [1] is below 20000 nM; in test [2] it was at least 2000 nM.
In the same order, the values of `Nc1ncccc1-c1nc2ccc(-c3ccccc3)nc2n1-c1ccc(N2CCC(C(=O)O)C2)nc1` (stereo not shown) [Compound I-25, 1-(5-(2-(2-aminopyridin-3-yl)-5-phenyl-3H-imidazo[4,5-b]pyridin-3-yl)pyridin-2-yl)pyrrolidine-3-carboxylic acid] are below 20000 nM and 500 to 2000 nM.
Regarding `CC(C(=O)O)C1CCN(c2ccc(-n3c(-c4cccnc4N)nc4ccc(-c5ccccc5)nc43)cn2)C1` (stereo not shown) [Compound I-26, 2-(1-(5-(2-(2-aminopyridin-3-yl)-5-phenyl-3H-imidazo[4,5-b]pyridin-3-yl)pyridin-2-yl)pyrrolidin-3-yl)propanoic acid], the IC50 is below 20000 nM in test [1] and at least 2000 nM in test [2].
The like results for `Nc1ncccc1-c1nc2ccc(-c3ccccc3)nc2n1-c1ccc(N2CCC(C(=O)O)CC2)nc1` [Compound I-27, 1-(5-(2-(2-aminopyridin-3-yl)-5-phenyl-3H-imidazo[4,5-b]pyridin-3-yl)pyridin-2-yl)piperidine-4-carboxylic acid] were, in that order, below 20000 nM and 500 to 2000 nM.
For the molecule `Nc1ncccc1-c1nc2ccc(-c3ccccc3)nc2n1-c1ccc(N2CCCC(C(=O)O)C2)nc1` (stereo not shown) [Compound I-28, 1-(5-(2-(2-aminopyridin-3-yl)-5-phenyl-3H-imidazo[4,5-b]pyridin-3-yl)pyridin-2-yl)piperidine-3-carboxylic acid], the IC50 in test [1] was below 20000 nM; in test [2], at least 2000 nM.
For the molecule `Nc1ncccc1-c1nc2ccc(-c3ccccc3)nc2n1-c1ccc(CN2CCC(C(=O)O)CC2)cc1` [Compound I-29, 1-(4-(2-(2-aminopyridin-3-yl)-5-phenyl-3H-imidazo[4,5-b]pyridin-3-yl)benzyl)piperidine-4-carboxylic acid], the values for the IC50 in test [1] and in test [2] were below 20000 nM and 500 to 2000 nM, respectively.
With `Nc1ncccc1-c1nc2ccc(-c3ccccc3)nc2n1-c1ccc(CN2CCC(C(=O)O)CC2)c(F)c1` [Compound I-30, 1-(4-(2-(2-aminopyridin-3-yl)-5-phenyl-3H-imidazo[4,5-b]pyridin-3-yl)-2-fluorobenzyl)piperidine-4-carboxylic acid], the IC50 is below 20000 nM in test [1] and at least 2000 nM in test [2].
Consider `Nc1ncccc1-c1nc2ccc(-c3ccccc3)nc2n1-c1ccc(CNC2CCC(C(=O)O)CC2)cc1` (stereo not shown) [Compound I-31, 4-((4-(2-(2-aminopyridin-3-yl)-5-phenyl-3H-imidazo[4,5-b]pyridin-3-yl)benzyl)amino)cyclohexane-1-carboxylic acid], for which the IC50 in test [1] was below 20000 nM; in test [2], 500 to 2000 nM.
The like results for `Nc1ncccc1-c1nc2ccc(-c3ccccc3)cc2n1-c1ccc(NC(=O)[C@H]2CC[C@H](C(=O)O)CC2)nc1` [Compound I-32, (1r,4r)-4-((5-(2-(2-aminopyridin-3-yl)-6-phenyl-1H-benzo[d]imidazol-1-yl)pyridin-2-yl)carbamoyl)cyclohexane-1-carboxylic acid] were, in that order, below 20000 nM and 500 to 2000 nM.
The like results for `Nc1ncccc1-c1nc2ccc(N3CCOCC3)cc2n1-c1ccc(NC(=O)[C@H]2CC[C@H](C(=O)O)CC2)cc1` [Compound I-33, (1r,4r)-4-((4-(2-(2-aminopyridin-3-yl)-6-morpholino-1H-benzo[d]imidazol-1-yl)phenyl)carbamoyl)cyclohexane-1-carboxylic acid] were, in that order, below 20000 nM and at least 2000 nM.
